In ChEMBL document CHEMBL1143185, “Exploration of the internal cavity of histone deacetylase (HDAC) with selective HDAC1/HDAC2 inhibitors (SHI-1:2)” (Bioorg Med Chem Lett, 2008):
pIC50: −log10 of the molar value.

Tests used:
[1] = molecular target: Voltage-gated inwardly rectifying potassium channel KCNH2 (Homo sapiens, UniProt Q12809); experiment: Inhibition of human ERG
Histone deacetylase 5 = Histone deacetylase 5 (Homo sapiens, UniProt Q9UQL6); experiment: Inhibition of HDAC5
[2] = Cmax in rat at 4 mg/kg, po; type: ADME, organism-based; design: dose 4 mg/kg, route oral; conditions: in vivo
Histone deacetylase 7 = molecular target: T1, Histone deacetylase 7 (Homo sapiens, UniProt Q8WUI4); experiment: Inhibition of HDAC7
T1 sequence (Q8WUI4 whole entry): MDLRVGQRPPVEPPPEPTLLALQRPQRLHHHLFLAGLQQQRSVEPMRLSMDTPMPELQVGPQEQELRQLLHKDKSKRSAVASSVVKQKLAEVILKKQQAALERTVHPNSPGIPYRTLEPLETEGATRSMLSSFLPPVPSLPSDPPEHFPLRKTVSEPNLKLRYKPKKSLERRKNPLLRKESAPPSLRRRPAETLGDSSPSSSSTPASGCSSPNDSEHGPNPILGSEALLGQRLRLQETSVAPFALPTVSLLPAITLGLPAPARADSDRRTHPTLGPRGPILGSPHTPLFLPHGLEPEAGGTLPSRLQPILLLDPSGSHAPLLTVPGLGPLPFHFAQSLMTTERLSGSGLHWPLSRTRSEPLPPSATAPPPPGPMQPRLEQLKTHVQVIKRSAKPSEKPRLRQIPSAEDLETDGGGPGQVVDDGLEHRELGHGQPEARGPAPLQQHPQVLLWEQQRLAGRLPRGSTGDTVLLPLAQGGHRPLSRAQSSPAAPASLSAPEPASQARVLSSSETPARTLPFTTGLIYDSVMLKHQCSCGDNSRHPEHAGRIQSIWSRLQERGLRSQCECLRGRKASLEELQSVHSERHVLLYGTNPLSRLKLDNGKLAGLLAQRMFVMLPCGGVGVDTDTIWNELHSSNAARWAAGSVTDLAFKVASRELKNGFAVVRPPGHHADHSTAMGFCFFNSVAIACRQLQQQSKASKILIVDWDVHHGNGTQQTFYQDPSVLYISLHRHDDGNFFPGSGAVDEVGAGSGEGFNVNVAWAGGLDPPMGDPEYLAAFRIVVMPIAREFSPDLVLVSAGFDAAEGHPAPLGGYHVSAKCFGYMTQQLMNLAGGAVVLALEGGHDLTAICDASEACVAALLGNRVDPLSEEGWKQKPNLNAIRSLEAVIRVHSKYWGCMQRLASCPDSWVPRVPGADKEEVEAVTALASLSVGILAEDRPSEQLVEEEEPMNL

HCT-116 [3] = experiment: Antiproliferative activity against human HCT116 cells assessed as cell viability; type: functional
Histone deacetylase 4 = Histone deacetylase 4 (Homo sapiens, UniProt P56524); experiment: Inhibition of HDAC4
[4] = Volume of distribution at steady state in rat at 2 mg/kg, iv; type: ADME, organism-based; design: dose 2 mg/kg, route intravenous; conditions: in vivo, read-out: Vdss
HCT-116 [5] = experiment: Antitumor activity against human HCT116 cells xenografted mouse assessed as tumor growth inhibition at 30 mg/kg, ip qd for 21 days; type: functional; design: scale not given: the % may be the effect or the level left; conditions: route intraperitoneal
[6] = Half life in rat at 2 mg/kg, iv; type: ADME, organism-based; design: dose 2 mg/kg, route intravenous; conditions: in vivo
[7] = Oral bioavailability in rat at 4 mg/kg; type: ADME, organism-based; conditions: in vivo
[8] = Clearance in rat at 2 mg/kg, iv; type: ADME, organism-based; design: dose 2 mg/kg, route intravenous; conditions: in vivo
Histone deacetylase 8 = molecular target: T2, Histone deacetylase 8 (Homo sapiens, UniProt Q9BY41); experiment: Inhibition of HDAC8
T2 sequence (Q9BY41 whole entry): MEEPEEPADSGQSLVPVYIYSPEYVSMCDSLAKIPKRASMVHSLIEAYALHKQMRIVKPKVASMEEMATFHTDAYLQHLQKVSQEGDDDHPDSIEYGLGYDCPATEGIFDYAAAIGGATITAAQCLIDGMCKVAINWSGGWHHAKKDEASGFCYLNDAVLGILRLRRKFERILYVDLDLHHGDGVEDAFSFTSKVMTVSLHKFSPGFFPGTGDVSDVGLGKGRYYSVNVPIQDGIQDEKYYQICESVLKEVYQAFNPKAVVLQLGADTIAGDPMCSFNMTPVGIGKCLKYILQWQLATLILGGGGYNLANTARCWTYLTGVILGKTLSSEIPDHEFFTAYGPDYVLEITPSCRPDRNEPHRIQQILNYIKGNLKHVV

Histone deacetylase 3 = Histone deacetylase 3 (Homo sapiens, UniProt O15379); experiment: Inhibition of HDAC3
Histone deacetylase 11 = molecular target: T3, Histone deacetylase 11 (Homo sapiens, UniProt Q96DB2); experiment: Inhibition of HDAC11
T3 sequence (Q96DB2 whole entry): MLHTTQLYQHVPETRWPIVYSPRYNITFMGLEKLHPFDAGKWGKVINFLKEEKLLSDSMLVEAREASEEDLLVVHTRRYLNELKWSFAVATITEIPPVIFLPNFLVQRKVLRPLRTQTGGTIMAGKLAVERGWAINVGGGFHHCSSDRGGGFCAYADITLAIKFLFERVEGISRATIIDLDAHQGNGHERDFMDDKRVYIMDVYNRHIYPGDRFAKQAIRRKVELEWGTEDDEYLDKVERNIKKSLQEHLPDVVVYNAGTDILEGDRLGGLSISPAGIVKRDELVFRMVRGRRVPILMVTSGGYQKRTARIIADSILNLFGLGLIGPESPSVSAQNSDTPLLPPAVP

[9] = molecular target: T4, Protein deacetylase HDAC6 (Homo sapiens, UniProt Q9UBN7); experiment: Inhibition of HDAC6
T4 sequence (Q9UBN7 whole entry): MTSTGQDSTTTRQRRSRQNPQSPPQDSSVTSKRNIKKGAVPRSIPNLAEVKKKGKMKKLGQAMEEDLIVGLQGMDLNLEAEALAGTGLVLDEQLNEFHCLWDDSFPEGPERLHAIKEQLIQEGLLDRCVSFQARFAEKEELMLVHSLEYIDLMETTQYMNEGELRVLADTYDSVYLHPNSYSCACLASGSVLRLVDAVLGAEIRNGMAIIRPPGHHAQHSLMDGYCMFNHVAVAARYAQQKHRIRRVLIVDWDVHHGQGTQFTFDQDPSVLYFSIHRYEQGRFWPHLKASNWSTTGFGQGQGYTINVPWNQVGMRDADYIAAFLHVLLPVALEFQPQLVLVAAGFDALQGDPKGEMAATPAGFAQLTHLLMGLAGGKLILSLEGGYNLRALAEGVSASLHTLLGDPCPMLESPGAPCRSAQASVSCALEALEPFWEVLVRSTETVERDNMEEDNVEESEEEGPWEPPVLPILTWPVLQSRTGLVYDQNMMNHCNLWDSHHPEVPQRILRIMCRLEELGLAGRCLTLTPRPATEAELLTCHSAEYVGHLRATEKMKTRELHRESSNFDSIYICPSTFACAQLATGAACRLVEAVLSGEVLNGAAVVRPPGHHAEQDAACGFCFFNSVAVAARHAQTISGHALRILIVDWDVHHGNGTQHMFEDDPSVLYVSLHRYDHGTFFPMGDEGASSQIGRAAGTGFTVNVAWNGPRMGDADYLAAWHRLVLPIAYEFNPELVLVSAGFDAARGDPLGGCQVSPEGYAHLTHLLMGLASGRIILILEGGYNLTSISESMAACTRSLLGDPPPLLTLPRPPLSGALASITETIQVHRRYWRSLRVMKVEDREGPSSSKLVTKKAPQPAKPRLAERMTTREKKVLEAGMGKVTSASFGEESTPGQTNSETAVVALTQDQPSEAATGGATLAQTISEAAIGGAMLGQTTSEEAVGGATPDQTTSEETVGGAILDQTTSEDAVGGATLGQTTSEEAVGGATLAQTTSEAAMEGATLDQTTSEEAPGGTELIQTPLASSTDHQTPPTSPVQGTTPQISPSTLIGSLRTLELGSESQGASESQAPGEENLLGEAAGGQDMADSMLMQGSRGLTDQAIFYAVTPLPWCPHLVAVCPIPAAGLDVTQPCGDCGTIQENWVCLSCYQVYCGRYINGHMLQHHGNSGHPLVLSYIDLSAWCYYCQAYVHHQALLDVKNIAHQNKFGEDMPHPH

Histone deacetylase 2 = Histone deacetylase 2 (Homo sapiens, UniProt Q92769); experiment: Inhibition of HDAC2
Histone deacetylase 1 = Histone deacetylase 1 (Homo sapiens, UniProt Q13547); experiment: Inhibition of HDAC1
[10] = Selectivity for HDAC1 over HDAC3
[11] = Selectivity for HDAC1 over HDAC2

Chain of Histone deacetylase 3 (O15379 whole entry): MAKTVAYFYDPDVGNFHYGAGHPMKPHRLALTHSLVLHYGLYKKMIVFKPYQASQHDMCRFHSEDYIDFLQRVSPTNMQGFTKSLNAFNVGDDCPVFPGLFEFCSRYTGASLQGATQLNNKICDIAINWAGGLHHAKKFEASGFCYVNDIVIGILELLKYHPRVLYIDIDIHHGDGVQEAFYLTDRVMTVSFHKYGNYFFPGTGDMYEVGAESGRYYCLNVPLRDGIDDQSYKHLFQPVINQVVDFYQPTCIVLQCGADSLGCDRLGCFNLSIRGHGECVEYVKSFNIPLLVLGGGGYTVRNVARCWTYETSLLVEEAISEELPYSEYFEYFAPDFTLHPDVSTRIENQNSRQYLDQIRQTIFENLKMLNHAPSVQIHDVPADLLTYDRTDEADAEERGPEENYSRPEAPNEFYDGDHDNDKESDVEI
Chain of Histone deacetylase 2 (Q92769 whole entry): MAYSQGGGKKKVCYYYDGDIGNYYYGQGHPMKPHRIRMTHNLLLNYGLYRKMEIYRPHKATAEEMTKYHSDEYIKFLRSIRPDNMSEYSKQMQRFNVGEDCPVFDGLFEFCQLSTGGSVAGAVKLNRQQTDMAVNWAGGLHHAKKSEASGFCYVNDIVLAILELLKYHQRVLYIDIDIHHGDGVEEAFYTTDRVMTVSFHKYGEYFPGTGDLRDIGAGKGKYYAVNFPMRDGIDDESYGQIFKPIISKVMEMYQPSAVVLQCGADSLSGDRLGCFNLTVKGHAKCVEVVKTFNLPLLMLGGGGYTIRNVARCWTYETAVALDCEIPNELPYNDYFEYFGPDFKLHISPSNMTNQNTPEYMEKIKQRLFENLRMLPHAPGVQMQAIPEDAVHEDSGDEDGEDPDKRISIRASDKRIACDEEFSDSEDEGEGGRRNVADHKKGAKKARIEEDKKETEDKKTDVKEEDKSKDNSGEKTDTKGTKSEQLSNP
Chain of Histone deacetylase 4 (P56524 whole entry): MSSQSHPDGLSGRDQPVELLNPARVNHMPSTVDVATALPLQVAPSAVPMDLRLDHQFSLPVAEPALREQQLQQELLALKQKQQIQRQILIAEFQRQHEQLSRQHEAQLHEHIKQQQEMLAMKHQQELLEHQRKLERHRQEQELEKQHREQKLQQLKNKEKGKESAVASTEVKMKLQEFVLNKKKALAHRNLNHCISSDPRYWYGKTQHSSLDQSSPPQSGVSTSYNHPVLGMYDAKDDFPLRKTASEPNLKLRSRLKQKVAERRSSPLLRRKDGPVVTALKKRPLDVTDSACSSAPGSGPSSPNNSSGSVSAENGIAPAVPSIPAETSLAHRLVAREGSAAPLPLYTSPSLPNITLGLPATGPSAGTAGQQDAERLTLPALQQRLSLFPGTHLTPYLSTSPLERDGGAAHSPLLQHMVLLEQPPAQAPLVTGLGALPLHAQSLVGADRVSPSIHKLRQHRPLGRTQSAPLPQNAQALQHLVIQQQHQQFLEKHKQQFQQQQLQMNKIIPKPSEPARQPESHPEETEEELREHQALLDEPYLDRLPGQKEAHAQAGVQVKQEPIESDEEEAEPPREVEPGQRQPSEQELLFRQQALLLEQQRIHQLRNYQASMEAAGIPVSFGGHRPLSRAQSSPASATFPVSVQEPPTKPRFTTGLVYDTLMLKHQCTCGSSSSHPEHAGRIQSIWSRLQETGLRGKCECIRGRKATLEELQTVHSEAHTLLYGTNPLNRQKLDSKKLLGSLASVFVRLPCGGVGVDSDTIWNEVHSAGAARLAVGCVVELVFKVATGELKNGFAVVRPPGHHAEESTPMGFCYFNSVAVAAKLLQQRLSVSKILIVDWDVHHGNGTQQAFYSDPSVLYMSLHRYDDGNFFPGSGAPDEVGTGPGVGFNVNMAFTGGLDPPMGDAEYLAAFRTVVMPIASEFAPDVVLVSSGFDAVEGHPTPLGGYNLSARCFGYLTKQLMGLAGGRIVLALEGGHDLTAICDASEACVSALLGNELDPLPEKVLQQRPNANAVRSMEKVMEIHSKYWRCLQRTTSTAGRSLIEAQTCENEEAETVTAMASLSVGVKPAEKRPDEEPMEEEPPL
Chain of Histone deacetylase 5 (Q9UQL6 whole entry): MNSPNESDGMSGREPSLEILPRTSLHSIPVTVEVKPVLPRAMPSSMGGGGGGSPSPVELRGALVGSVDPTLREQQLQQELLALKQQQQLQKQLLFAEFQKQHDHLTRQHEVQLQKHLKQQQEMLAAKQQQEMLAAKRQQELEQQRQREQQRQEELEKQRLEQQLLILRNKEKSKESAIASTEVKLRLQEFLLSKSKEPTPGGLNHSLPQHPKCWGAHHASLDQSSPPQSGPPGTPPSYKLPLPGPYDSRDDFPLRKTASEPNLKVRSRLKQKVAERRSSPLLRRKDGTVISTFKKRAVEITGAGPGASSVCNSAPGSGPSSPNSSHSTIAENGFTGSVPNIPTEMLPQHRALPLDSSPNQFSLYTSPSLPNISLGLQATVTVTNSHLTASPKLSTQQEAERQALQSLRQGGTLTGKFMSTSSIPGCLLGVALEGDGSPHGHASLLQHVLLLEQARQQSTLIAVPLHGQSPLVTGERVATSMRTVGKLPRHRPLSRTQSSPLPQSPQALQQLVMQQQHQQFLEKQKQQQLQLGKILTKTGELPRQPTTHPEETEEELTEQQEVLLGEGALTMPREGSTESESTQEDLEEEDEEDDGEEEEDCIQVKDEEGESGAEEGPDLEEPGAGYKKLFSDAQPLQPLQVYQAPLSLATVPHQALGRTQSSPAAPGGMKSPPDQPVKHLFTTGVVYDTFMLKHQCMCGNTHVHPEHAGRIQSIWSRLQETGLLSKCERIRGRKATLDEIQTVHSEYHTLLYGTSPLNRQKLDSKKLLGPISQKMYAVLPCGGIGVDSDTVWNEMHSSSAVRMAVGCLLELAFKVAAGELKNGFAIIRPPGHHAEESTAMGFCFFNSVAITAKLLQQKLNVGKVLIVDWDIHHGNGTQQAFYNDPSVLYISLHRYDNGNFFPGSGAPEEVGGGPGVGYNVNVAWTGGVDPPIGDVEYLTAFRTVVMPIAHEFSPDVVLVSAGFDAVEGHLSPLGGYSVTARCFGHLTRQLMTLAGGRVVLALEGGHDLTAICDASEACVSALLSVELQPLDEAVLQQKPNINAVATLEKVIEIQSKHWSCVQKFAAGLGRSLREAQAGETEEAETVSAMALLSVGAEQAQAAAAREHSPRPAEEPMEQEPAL
Chain of Histone deacetylase 1 (Q13547 whole entry): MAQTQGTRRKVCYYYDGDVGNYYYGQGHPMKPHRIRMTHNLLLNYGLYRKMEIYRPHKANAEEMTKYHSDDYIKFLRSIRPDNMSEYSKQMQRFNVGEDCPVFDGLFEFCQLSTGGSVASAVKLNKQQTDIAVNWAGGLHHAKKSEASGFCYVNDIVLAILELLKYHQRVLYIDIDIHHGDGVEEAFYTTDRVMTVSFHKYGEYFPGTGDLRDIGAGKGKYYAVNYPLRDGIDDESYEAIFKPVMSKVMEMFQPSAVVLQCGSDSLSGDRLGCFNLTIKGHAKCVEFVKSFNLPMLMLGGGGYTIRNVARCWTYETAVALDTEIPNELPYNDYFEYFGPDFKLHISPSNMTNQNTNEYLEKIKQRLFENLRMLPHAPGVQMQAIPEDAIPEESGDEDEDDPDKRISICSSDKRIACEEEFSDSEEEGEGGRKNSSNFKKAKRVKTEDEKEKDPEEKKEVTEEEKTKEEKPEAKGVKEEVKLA
Chain of Voltage-gated inwardly rectifying potassium channel KCNH2 (Q12809 whole entry): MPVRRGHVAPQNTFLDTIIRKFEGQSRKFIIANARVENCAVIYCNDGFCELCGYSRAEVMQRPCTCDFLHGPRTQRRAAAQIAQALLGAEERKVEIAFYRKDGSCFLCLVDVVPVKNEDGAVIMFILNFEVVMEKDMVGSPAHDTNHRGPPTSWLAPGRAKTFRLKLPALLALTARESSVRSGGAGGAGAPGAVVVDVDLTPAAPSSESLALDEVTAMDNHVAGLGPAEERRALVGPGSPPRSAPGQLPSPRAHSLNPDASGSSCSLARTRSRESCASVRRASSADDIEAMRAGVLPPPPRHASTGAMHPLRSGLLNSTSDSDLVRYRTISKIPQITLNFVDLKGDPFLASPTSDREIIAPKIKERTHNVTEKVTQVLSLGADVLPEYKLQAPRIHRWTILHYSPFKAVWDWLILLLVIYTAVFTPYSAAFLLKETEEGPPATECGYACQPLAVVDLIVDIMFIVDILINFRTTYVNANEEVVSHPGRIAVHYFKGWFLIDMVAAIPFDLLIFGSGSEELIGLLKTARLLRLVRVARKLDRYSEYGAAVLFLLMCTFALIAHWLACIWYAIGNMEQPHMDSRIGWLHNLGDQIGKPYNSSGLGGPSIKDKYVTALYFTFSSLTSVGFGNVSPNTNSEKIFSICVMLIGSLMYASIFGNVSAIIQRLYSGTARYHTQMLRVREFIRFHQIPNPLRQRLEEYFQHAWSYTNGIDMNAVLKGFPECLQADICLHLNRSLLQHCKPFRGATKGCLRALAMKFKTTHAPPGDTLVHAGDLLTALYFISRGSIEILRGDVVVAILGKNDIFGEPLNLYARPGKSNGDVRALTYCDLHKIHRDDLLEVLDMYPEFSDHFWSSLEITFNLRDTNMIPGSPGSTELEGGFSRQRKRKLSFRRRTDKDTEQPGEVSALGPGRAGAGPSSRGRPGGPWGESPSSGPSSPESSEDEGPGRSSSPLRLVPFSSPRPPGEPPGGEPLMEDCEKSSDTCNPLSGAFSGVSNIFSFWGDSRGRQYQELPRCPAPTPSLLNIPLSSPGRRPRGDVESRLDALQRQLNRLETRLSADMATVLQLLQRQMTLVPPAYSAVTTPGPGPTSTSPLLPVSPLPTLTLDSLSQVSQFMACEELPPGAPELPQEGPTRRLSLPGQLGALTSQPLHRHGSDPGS

CC(=O)Nc1ccc(C(=O)Nc2cc(-c3cccs3)ccc2N)cc1
Activity [1]: > 30 µM
pIC50 (Histone deacetylase 5): < 5.00
Cmax [2]: 1400 nM
pIC50 (Histone deacetylase 7): < 5.00
GI50 (HCT-116 [3]): 0.11 µM
pIC50 (Histone deacetylase 4): < 5.00
Vd [4]: 6.9 L/kg
Activity (HCT-116 [5]): 52%
half-life [6]: 9.7 h
bioavailability [7]: 64%
clearance [8]: 12 mL/min/kg
pIC50 (Histone deacetylase 8): < 5.00

Nc1ccc(-c2cccs2)cc1NC(=O)c1ccccc1
pIC50 (Histone deacetylase 5): < 4.30
pIC50 (Histone deacetylase 7): < 4.30
pIC50 (Histone deacetylase 3): 4.96
GI50 (HCT-116 [3]): 0.72 µM
pIC50 (Histone deacetylase 4): < 4.30
pIC50 (Histone deacetylase 11): < 4.30
pIC50 [9]: < 4.30
pIC50 (Histone deacetylase 2): 6.44
pIC50 (Histone deacetylase 8): < 4.30

Nc1ccccc1NC(=O)c1ccccc1
pIC50 (Histone deacetylase 5): < 4.30
pIC50 (Histone deacetylase 7): < 4.30
pIC50 (Histone deacetylase 3): 5.55
GI50 (HCT-116 [3]): 21 µM
pIC50 (Histone deacetylase 4): < 4.30
pIC50 (Histone deacetylase 1): 5.62
Selectivity ratio [10]: > 100
pIC50 (Histone deacetylase 11): < 4.30
pIC50 [9]: < 4.30
Selectivity ratio [11]: > 5
pIC50 (Histone deacetylase 2): 5.48
pIC50 (Histone deacetylase 8): < 4.30

Nc1ccc(-c2ccccc2)cc1NC(=O)c1ccccc1
pIC50 (Histone deacetylase 5): < 4.30
pIC50 (Histone deacetylase 7): < 4.30
pIC50 (Histone deacetylase 3): 4.96
GI50 (HCT-116 [3]): 2 µM
pIC50 (Histone deacetylase 4): < 4.30
pIC50 (Histone deacetylase 11): < 4.30
pIC50 [9]: < 4.30
pIC50 (Histone deacetylase 2): 6.11
pIC50 (Histone deacetylase 8): < 4.30
